According to patent US9932637B2, “Genetic polymorphisms associated with cardiovascular disorders and drug response, methods of detection and uses thereof” (CELERA CORPORATION, priority 2003, dated 2018):

System: patients with prior myocardial infarction (CARE study)
Assay: CARE: association of SNPs with pravastatin treatment in cardiovascular events prevention (logistic regression, odds ratio pravastatin vs placebo by genotype; Table 8)
Assay type: in vivo, human
Source text: In order to identify genetic markers associated with acute coronary events (e.g. MI, stroke, unstable angina, congestive heart failure, etc.) or response to statin treatment for the prevention of coronary events, samples from the Cholesterol and Recurrent Events (CARE) study (a randomized multicentral double-blinded trial on secondary prevention of acute coronary events with pravastatin) (Sacks et al., 1991, Am. J. Cardiol. 68: 1436-1446) were genotyped. A well-documented myocardial infarction (MI) was one of the enrollment criteria for entry into the CARE study. Patients were enrolled in the CARE trial from 80 participating study centers. […] Patients were randomized to receive either 40 mg of pravastatin once daily or a matching placebo. The primary endpoint of the trial was death from coronary heart disease and the median duration of follow-up was 5.0 years (range, 4.0 to 6.2 years). […] Secondary endpoints of other related cardiovascular or metabolic disease events, and changes in clinical variables were also recorded in pravastatin-treated and placebo groups. All individuals included in the study had signed a written informed consent form and the study protocol was approved by the respective Institutional Review Boards (IRBs).
For genotyping SNPs in CARE patient samples, DNA was extracted from blood samples using conventional DNA extraction methods such as the QIA-amp kit from Qiagen. Genotypes were obtained on an ABI PRISM® 7900HT Sequence Detection PCR system (Applied Biosystems, Foster City, Calif.) by kinetic allele-specific PCR, similar to the method described by Germer et al. (Germer S., Holland M. J., Higuchi R. 2000, Genome Res. 10: 258-266).
Statistical analysis for association of SNPs with pravastatin treatment in cardiovascular events prevention (Table 8) was carried out using an overall logistic regression model that included an intercept, a parameter for the effect of a genotype containing two rare alleles versus a genotype containing no rare alleles, a parameter for the effect of a genotype containing one rare allele versus a genotype containing no rare alleles, a parameter for the effect of use of pravastatin versus the use of placebo, and parameters for the interaction effects between SNP genotypes and pravastatin use. The test of the overall model is a chi-square test with two degrees of freedom for analyses containing all three genotypes, and one degree of freedom for analyses containing two genotypes.
Effect sizes were estimated through odds ratios (pravastatin group versus placebo) for carriers of each genotype (groups of 0, 1, and 2 minor allele carriers). The effect was considered to be significant if p-value for testing whether any of the interactions between SNP genotypes and pravastatin use were <0.05. […] Odds ratios less than one indicate that the specific SNP allele has a protective effect and odds ratios greater than one indicate that the specific SNP allele has an adverse effect.

[1] = CXCL16 hCV8718197, All Patients, Cardiovascular Mortality
[2] = CXCL16 hCV8718197, All Patients, Coronary Artery Bypass or Revascularization
[3] = CXCL16 hCV8718197, All Patients, Fatal Atherosclerotic Cardiovascular Disease
[4] = CXCL16 hCV8718197, All Patients, Fatal CHD/Definite Non-fatal MI
[5] = CXCL16 hCV8718197, All Patients, Fatal/Non-fatal MI (def & prob)
[6] = CXCL16 hCV8718197, All Patients, Hosp. for Cardiovascular Disease
[7] = CXCL16 hCV8718197, All Patients, Total Cardiovascular Disease Events
[8] = CXCL16 hCV8718197, All Patients, Total Coronary Heart Disease
[9] = CYP4F2 hCV16179493, All Patients, 0 Rare Alleles, Prava arm
[10] = CYP4F2 hCV16179493, All Patients, 1 Rare Allele, Prava arm
[11] = CYP4F2 hCV16179493, All Patients, 2 Rare Alleles, Prava arm
[12] = ELN hCV1253630, All Patients, 0 Rare Alleles, Prava, n/total 45/543

Compound: CC[C@H](C)C(=O)O[C@H]1C[C@H](O)C=C2C=C[C@H](C)[C@H](CC[C@@H](O)C[C@@H](O)CC(=O)O)[C@H]21 [pravastatin]
- Fatal Atherosclerotic Cardiovascular Disease, n/total (%) (CXCL16 hCV8718197, All Patients, 2 Rare Alleles, Prava, n/total 19/292): (6.5%)
- Fatal CHD/Definite Non-fatal MI, n/total (%) (CXCL16 hCV8718197, All Patients, 2 Rare Alleles, Prava, n/total 34/292): (11.6%)
- Fatal/Non-fatal MI (def & prob), n/total (%) (CXCL16 hCV8718197, All Patients, 2 Rare Alleles, Prava, n/total 36/292): (12.3%)
- Coronary Artery Bypass or Revascularization, n/total (%) (CXCL16 hCV8718197, All Patients, 2 Rare Alleles, Prava, n/total 43/292): (14.7%)
- Total Coronary Heart Disease Events, n/total (%) (CXCL16 hCV8718197, All Patients, 2 Rare Alleles, Prava, n/total 94/292): (32.2%)
- Hosp. for Cardiovascular Disease, n/total (%) (CXCL16 hCV8718197, All Patients, 2 Rare Alleles, Prava, n/total 124/292): (42.5%)
- Total Cardiovascular Disease Events, n/total (%) (CXCL16 hCV8718197, All Patients, 2 Rare Alleles, Prava, n/total 130/292): (44.5%)
- Prava vs. Placebo Odds Ratio, 0 Rare Alleles [1]: 0.45
- Prava vs. Placebo Odds Ratio, 1 Rare Alleles [1]: 0.80
- Prava vs. Placebo Odds Ratio, 2 Rare Alleles [1]: 2.08
- Prava vs. Placebo Odds Ratio, 0 Rare Alleles [2]: 0.45
- Prava vs. Placebo Odds Ratio, 1 Rare Alleles [2]: 0.93
- Prava vs. Placebo Odds Ratio, 2 Rare Alleles [2]: 0.70
- Prava vs. Placebo Odds Ratio, 0 Rare Alleles [3]: 0.45
- Prava vs. Placebo Odds Ratio, 1 Rare Alleles [3]: 0.76
- Prava vs. Placebo Odds Ratio, 2 Rare Alleles [3]: 2.08
- Prava vs. Placebo Odds Ratio, 0 Rare Alleles [4]: 0.44
- Prava vs. Placebo Odds Ratio, 1 Rare Alleles [4]: 0.82
- Prava vs. Placebo Odds Ratio, 2 Rare Alleles [4]: 1.05
- Prava vs. Placebo Odds Ratio, 0 Rare Alleles [5]: 0.38
- Prava vs. Placebo Odds Ratio, 1 Rare Alleles [5]: 0.80
- Prava vs. Placebo Odds Ratio, 2 Rare Alleles [5]: 0.92
- Prava vs. Placebo Odds Ratio, 0 Rare Alleles [6]: 0.59
- Prava vs. Placebo Odds Ratio, 1 Rare Alleles [6]: 0.89
- Prava vs. Placebo Odds Ratio, 2 Rare Alleles [6]: 0.80
- Prava vs. Placebo Odds Ratio, 0 Rare Alleles [7]: 0.56
- Prava vs. Placebo Odds Ratio, 1 Rare Alleles [7]: 0.90
- Prava vs. Placebo Odds Ratio, 2 Rare Alleles [7]: 0.81
- Prava vs. Placebo Odds Ratio, 0 Rare Alleles [8]: 0.57
- Prava vs. Placebo Odds Ratio, 1 Rare Alleles [8]: 0.92
- Prava vs. Placebo Odds Ratio, 2 Rare Alleles [8]: 0.82
- Cardiovascular Mortality, n/total (%) [9]: (3.3%)
- Catheterization, n/total (%) [9]: (10.5%)
- Fatal Atherosclerotic Cardiovascular Disease, n/total (%) [9]: (3.2%)
- Fatal Coronary Heart Disease, n/total (%) [9]: (2.5%)
- Total Mortality, n/total (%) [9]: (4.7%)
- Cardiovascular Mortality, n/total (%) [10]: (4.4%)
- Catheterization, n/total (%) [10]: (8.6%)
- Fatal Atherosclerotic Cardiovascular Disease, n/total (%) [10]: (4.4%)
- Fatal Coronary Heart Disease, n/total (%) [10]: (4.2%)
- Total Mortality, n/total (%) [10]: (6.6%)
- Cardiovascular Mortality, n/total (%) [11]: (2.1%)
- Catheterization, n/total (%) [11]: (16.7%)
- Fatal Atherosclerotic Cardiovascular Disease, n/total (%) [11]: (2.1%)
- Fatal Coronary Heart Disease, n/total (%) [11]: (2.1%)
- Total Mortality, n/total (%) [11]: (4.2%)
- Non-fatal MI (def & prob), n/total (%) (ELN hCV1253630, All Patients, 0 Rare Alleles, Prava, n/total 42/543): (7.7%)
- Fatal CHD/Definite Non-fatal MI, n/total (%) [12]: (8.3%)
- Fatal/Non-fatal MI (def & prob), n/total (%) [12]: (8.3%)
- Total Coronary Heart Disease Events, n/total (%) (ELN hCV1253630, All Patients, 0 Rare Alleles, Prava, n/total 146/543): (26.9%)
- Hosp. for Cardiovascular Disease, n/total (%) (ELN hCV1253630, All Patients, 0 Rare Alleles, Prava, n/total 204/543): (37.6%)
- Total Cardiovascular Disease Events, n/total (%) (ELN hCV1253630, All Patients, 0 Rare Alleles, Prava, n/total 212/543): (39.0%)
- Non-fatal MI (def & prob), n/total (%) (ELN hCV1253630, All Patients, 1 Rare Allele, Prava, n/total 62/724): (8.6%)
- Fatal CHD/Definite Non-fatal MI, n/total (%) (ELN hCV1253630, All Patients, 1 Rare Allele, Prava, n/total 65/724): (9.0%)
- Fatal/Non-fatal MI (def & prob), n/total (%) (ELN hCV1253630, All Patients, 1 Rare Allele, Prava, n/total 68/724): (9.4%)
- Total Coronary Heart Disease Events, n/total (%) (ELN hCV1253630, All Patients, 1 Rare Allele, Prava, n/total 206/724): (28.5%)
- Hosp. for Cardiovascular Disease, n/total (%) (ELN hCV1253630, All Patients, 1 Rare Allele, Prava, n/total 291/724): (40.2%)
- Total Cardiovascular Disease Events, n/total (%) (ELN hCV1253630, All Patients, 1 Rare Allele, Prava, n/total 298/724): (41.2%)
